Data on five compounds can be found in ChEMBL document CHEMBL4359915, “Design, synthesis and biological evaluation of novel diazaspiro[4.5]decan-1-one derivatives as potential chitin synthase inhibitors and antifungal agents” (Eur J Med Chem, 2019).

Converted amounts (≈) assume the structure as drawn.

For assay [1], the system named is Staphylococcus aureus. The assay is described as follows: Antibacterial activity against methicillin-resistant Staphylococcus aureus N315 assessed as growth inhibition measured after 24 hrs by two-fold broth dilution method. Type of assay: functional. The conditions noted are these: N315, 24 h.
For assay [2], the system named is Candida albicans. The assay is described as follows: Antifungal activity against Candida albicans ATCC 90023 assessed as growth inhibition measured after 24 hrs by two-fold broth dilution method. It counts as functional. The conditions noted are these: ATCC 90023, 24 h.
A further assay deals with Bacillus spizizenii. The assay is described as follows: Antibacterial activity against Bacillus subtilis ATCC 6633 assessed as growth inhibition measured after 24 hrs by two-fold broth dilution method. The conditions noted are these: ATCC 6633, 24 h. It counts as functional.
Assay [3] deals with Candida albicans. Kind of assay: Antifungal activity against Candida albicans ATCC 76615 assessed as growth inhibition measured after 24 hrs by two-fold broth dilution method. It counts as functional. The conditions noted are these: ATCC 76615, 24 h.
Another assay has as its system Candida tropicalis. Kind of assay: Inhibition of Candida tropicalis ATCC 750 chitin synthase at 300 ug/ml using UDP-GlcNAc as substrate relative to control.
A further assay has as its system Proteus vulgaris. The assay is described as follows: Antibacterial activity against Bacillus proteus ATCC 8427 assessed as growth inhibition measured after 24 hrs by two-fold broth dilution method. It counts as functional. The conditions noted are these: ATCC 8427, 24 h.
The subject of another assay is Pseudomonas aeruginosa. Kind of assay: Antibacterial activity against Pseudomonas aeruginosa ATCC 9027 assessed as growth inhibition measured after 24 hrs by two-fold broth dilution method. The conditions noted are these: ATCC 9027, 24 h. Type of assay: functional.
A further assay has as its system Escherichia coli. The assay is described as follows: Antibacterial activity against Escherichia coli JM 109 assessed as growth inhibition measured after 24 hrs by two-fold broth dilution method. Type of assay: functional. The conditions noted are these: JM 109, 24 h.
Assay [4] concerns Staphylococcus aureus. The assay is described as follows: Antibacterial activity against Staphylococcus aureus ATCC 25923 assessed as growth inhibition measured after 24 hrs by two-fold broth dilution method. Type of assay: functional. The conditions noted are these: ATCC 25923, 24 h.
Assay [5] can be described thus: Inhibition of Candida tropicalis ATCC 750 chitin synthase using UDP-GlcNAc as substrate.
In a further assay the test system is Aspergillus flavus. Kind of assay: Antifungal activity against Aspergillus flavus ATCC 16870 assessed as growth inhibition measured after 24 hrs by two-fold broth dilution method. Type of assay: functional. The note with it: ATCC 16870, 24 h.
A further assay relates to Cryptococcus neoformans. Kind of assay: Antifungal activity against Cryptococcus neoformans ATCC 32719 assessed as growth inhibition measured after 24 hrs by two-fold broth dilution method. It counts as functional. The note with it: ATCC 32719, 24 h.
The next assay deals with Aspergillus fumigatus. Kind of assay: Antifungal activity against Aspergillus fumigatus GIMCC 3.19 assessed as growth inhibition measured after 24 hrs by two-fold broth dilution method. It counts as functional. The conditions noted are these: GIMCC 3.19, 24 h.

Turning to `O=C(Nc1ccccc1Cl)[C@H](O)[C@@H](O)C(=O)N1CCC2(CCNC2=O)CC1`, the minimum inhibitory concentration (MIC) in the assay with Staphylococcus aureus [1] was 320 µM (≈ 127 µg/mL); with Candida albicans [2], 1290 µM (≈ 511 µg/mL); in the assay with Bacillus spizizenii it was 650 µM (≈ 257 µg/mL); in the assay on Candida albicans [3], 1290 µM (≈ 511 µg/mL); with Proteus vulgaris it was 160 µM (≈ 63.3 µg/mL); in the assay on Pseudomonas aeruginosa, 320 µM (≈ 127 µg/mL). For the same compound, the MIC in the assay on Escherichia coli was determined as 320 µM (≈ 127 µg/mL); in the assay with Staphylococcus aureus [4] it was 160 µM (≈ 63.3 µg/mL); with Aspergillus flavus it was 1290 µM (≈ 511 µg/mL); with Cryptococcus neoformans it was 320 µM (≈ 127 µg/mL); in the assay on Aspergillus fumigatus, 320 µM (≈ 127 µg/mL). For the same compound, in the assay on Candida tropicalis, the inhibition turned out to be 85.5%. Moreover, the concentration for half-maximal inhibition (IC50) in assay [5] is 140 µM.

Take `O=C(Nc1cccc(Br)c1)[C@H](O)[C@@H](O)C(=O)N1CCC2(CCNC2=O)CC1`: the MIC is 290 µM (≈ 128 µg/mL) with Staphylococcus aureus [1]; 580 µM (≈ 255 µg/mL) in the assay on Candida albicans [2]; 1160 µM (≈ 511 µg/mL) with Bacillus spizizenii; 290 µM (≈ 128 µg/mL) in the assay on Candida albicans [3]; 290 µM (≈ 128 µg/mL) in the assay with Proteus vulgaris; 580 µM (≈ 255 µg/mL) with Pseudomonas aeruginosa. Moreover, the MIC is 580 µM (≈ 255 µg/mL) in the assay on Escherichia coli; 290 µM (≈ 128 µg/mL) in the assay with Staphylococcus aureus [4]; 280 µM (≈ 123 µg/mL) in the assay on Aspergillus flavus; 290 µM (≈ 128 µg/mL) in the assay with Cryptococcus neoformans; 1160 µM (≈ 511 µg/mL) with Aspergillus fumigatus. The inhibition in the assay with Candida tropicalis turned out to be 79.4%. This compound yielded an IC50 in [5] of 150 µM.

Turning to `O=C(Nc1ccc(Cl)cc1Cl)[C@H](O)[C@@H](O)C(=O)N1CCC2(CCNC2=O)CC1`, the minimum inhibitory concentration (MIC) in the assay on Staphylococcus aureus [1] was determined as 150 µM (≈ 64.5 µg/mL); with Candida albicans [2] it was 300 µM (≈ 129 µg/mL); with Bacillus spizizenii, 300 µM (≈ 129 µg/mL); with Candida albicans [3], 590 µM (≈ 254 µg/mL); with Proteus vulgaris it was 150 µM (≈ 64.5 µg/mL); in the assay on Pseudomonas aeruginosa it was 300 µM (≈ 129 µg/mL). Moreover, the minimum inhibitory concentration (MIC) in the assay on Escherichia coli was found to be 150 µM (≈ 64.5 µg/mL); in the assay with Staphylococcus aureus [4], 590 µM (≈ 254 µg/mL); with Aspergillus flavus it was 300 µM (≈ 129 µg/mL); in the assay on Cryptococcus neoformans, 590 µM (≈ 254 µg/mL); in the assay on Aspergillus fumigatus, 590 µM (≈ 254 µg/mL). The inhibition in the assay with Candida tropicalis worked out at 82.8%. Besides, 130 µM corresponded to half-maximal inhibition in assay [5] (IC50).

`O=C(Nc1ccc([N+](=O)[O-])cc1)[C@H](O)[C@@H](O)C(=O)N1CCC2(CCNC2=O)CC1`: the MIC with Staphylococcus aureus [1] came out at 630 µM (≈ 256 µg/mL); in the assay with Candida albicans [2], 1260 µM (≈ 512 µg/mL); in the assay with Bacillus spizizenii it was 1260 µM (≈ 512 µg/mL); in the assay with Candida albicans [3], 1260 µM (≈ 512 µg/mL); in the assay on Proteus vulgaris, 310 µM (≈ 126 µg/mL); in the assay on Pseudomonas aeruginosa it was 630 µM (≈ 256 µg/mL). For the same compound, the minimum inhibitory concentration (MIC) came to 310 µM (≈ 126 µg/mL) with Escherichia coli; 160 µM (≈ 65 µg/mL) in the assay on Staphylococcus aureus [4]; 1260 µM (≈ 512 µg/mL) in the assay with Aspergillus flavus; 1260 µM (≈ 512 µg/mL) in the assay with Cryptococcus neoformans; 310 µM (≈ 126 µg/mL) in the assay on Aspergillus fumigatus. The compound further returned an inhibition with Candida tropicalis of 58.4%. In assay [5], this compound came in with a half-maximal inhibitory concentration (IC50) of 390 µM.

Regarding `O=C(Nc1ccc(F)cc1F)[C@H](O)[C@@H](O)C(=O)N1CCC2(CCNC2=O)CC1`, the minimum inhibitory concentration (MIC) with Staphylococcus aureus [1] is 80 µM (≈ 31.8 µg/mL); in the assay with Candida albicans [2], 320 µM (≈ 127 µg/mL); with Bacillus spizizenii, 160 µM (≈ 63.6 µg/mL); with Candida albicans [3], 640 µM (≈ 254 µg/mL); with Proteus vulgaris, 160 µM (≈ 63.6 µg/mL); with Pseudomonas aeruginosa, 320 µM (≈ 127 µg/mL). Besides, the MIC with Escherichia coli came to 320 µM (≈ 127 µg/mL); in the assay on Staphylococcus aureus [4], 320 µM (≈ 127 µg/mL); in the assay on Aspergillus flavus, 320 µM (≈ 127 µg/mL); in the assay with Cryptococcus neoformans it was 640 µM (≈ 254 µg/mL); in the assay on Aspergillus fumigatus it was 80 µM (≈ 31.8 µg/mL). For the same compound, the inhibition in the assay with Candida tropicalis turned out to be 65.2%. In addition, the IC50 in assay [5] came to 290 µM.
